Data reported in patent US20040181820A1, “Nucleic acids for transforming fish cells and methods for their use” (priority 2001, published 2004).
Read-outs that look alike come from different tables or passages of the source.

Assays:
rainbow trout fry = settings: for mortality of rainbow trout fry: 48 hours, fry 0.8 g
Protocol: Three different concentrations of ZnCl2 (1 μM, 10 μM, 100 μM) were assayed and analyzed for their toxic effects in rainbow trout fry (0.8 g).
Different concentrations of ZnCl2(10 mM, 5 mM, 2.5 mM, 1 mM, 100 μM, […] and 1 μM) were assayed and observed for their toxic effect in rainbow trout. […] After 30 days post-challenge, the correct dose (10 μM ZnCl2) is added to 90 fish per treatment. After 48 hours, PCR analysis with IHNV G and M specific primers is performed to verify that the DNA vaccines have been totally eliminated from muscle tissue of the vaccinated and Zinc exposed fish.

EPC cells = settings: 100, 150, or 200 μM
Protocol: Persistence of a DNA suicide vector (constructed according to Example 21) in transfected cells was assessed by a reverse transcriptase reaction coupled to PCR (RT-PCR). […] Approximately 24 hours after transfection, the cells were treated with non-toxic concentrations of ZnCl2 (100, 150, or 200 μM). Control cells were left untreated.
At 48 hours after the ZnCl2 addition, total RNA was isolated and an RT-PCR assay using IHNV-G specific primers (5′-[sequence]-3′ provided by SEQ. ID. NO: 2 and 5′-[sequence] [sequence]-3′ provided by SEQ. ID. NO: 3) was performed. PCR conditions were: 94° C. 30 sec, 55° C. 1 min and 72° C. 2 min.

[1] = system: epithelioma papulosum cyprini cells (EPC)
Protocol: In vitro experiments in epithelioma papulosum cyprini cells (EPC) were performed to verify the mechanisin of action of the “suicide vectors”.
Cell transfection assays were made using Lipofectamine Plus following the instructions of the manufacturer (Gibco, BRL, Gaithersburg, Md.). After 48 hours, the cells were treated with 100 μM ZnCl2, an inducer of the MT promoter.
(100 μM). Cells transfected with the different constructs were left uninduced (a,d) or were treated with […] of ZnCl2 at 48 h. post-transfection (b,c,e,f).

fish cells = test: Zinc induction of metallothionein promoter in fish cells (Example 14); type: cell-based; settings: 100 μM zinc dose
[2] = system: rainbow trout MT promoter; test: pMT-CAT reporter in medaka hatchlings with and without zinc (Example 14); type: in vivo; settings: medaka injected with pMT-CAT plasmid, stimulated with zinc vs unstimulated
Protocol: The activity of the rainbow trout MT promoter was examined by microinjecting plasmids containing pMT operably linked to the CAT reporter into fertilized eggs of medaka, as described in Inoue, et al., Supra. CAT activities were determined in hatchlings with and without stimulation with zinc. Only small trace levels of CAT activity were detected in unstimulated fish, but CAT activity increased in fish stimulated with zinc.

Row | SMILES | mortality of rainbow trout fry (rainbow trout fry; 1 μM and 10 μM in water) | mortality of rainbow trout fry (rainbow trout fry; 100 μM in water) | concentrations toxic for rainbow trout fry (rainbow trout fry; fry 1 g) | toxicity of ZnCl2 to transfected EPC cells (EPC cells) | effect of ZnCl2 on untransfected EPC control cells [1] | toxicity in fish cells (fish cells) | nucleic acid expression mediated by the metallothionein promoter (fish cells; fish cells) | CAT activity in hatchlings [2]
1 | [Cl-].[Cl-].[Zn+2] [ZnCl2] | no mortalities | all fish immersed in 100 μM ZnCl2 had died | higher than 10 μM | non-toxic | not obviously affected | – | – | –
2 | [Zn] [zinc] | – | – | – | – | – | without toxicity | induces | increased
